Broadly, the IC50 is the concentration at which inhibition is half-maximal.

Structures are written as SMILES. Read-outs that look alike come from different tables or passages of the source.

Test [1] deals with T1, ASIC1a (Homo sapiens, UniProt P78348).
T1 sequence (P78348 1-528): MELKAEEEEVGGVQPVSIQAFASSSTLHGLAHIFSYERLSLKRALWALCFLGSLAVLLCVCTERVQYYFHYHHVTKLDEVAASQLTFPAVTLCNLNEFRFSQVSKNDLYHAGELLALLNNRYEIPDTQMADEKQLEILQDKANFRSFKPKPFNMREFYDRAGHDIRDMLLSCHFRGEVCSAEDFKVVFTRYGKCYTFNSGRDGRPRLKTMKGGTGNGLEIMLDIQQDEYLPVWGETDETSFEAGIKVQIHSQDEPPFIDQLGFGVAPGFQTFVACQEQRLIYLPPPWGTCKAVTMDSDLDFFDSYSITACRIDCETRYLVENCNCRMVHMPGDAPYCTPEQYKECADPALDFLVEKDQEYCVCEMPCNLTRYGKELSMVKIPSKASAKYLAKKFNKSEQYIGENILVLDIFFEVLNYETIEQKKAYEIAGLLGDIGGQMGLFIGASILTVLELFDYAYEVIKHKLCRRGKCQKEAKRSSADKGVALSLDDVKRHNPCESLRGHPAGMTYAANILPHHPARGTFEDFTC
Description: Calcium-imaging (FLIPR) of MES-induced calcium response in ASIC1a expressing HEK293 cells. Type of test: cell-based. Also noted: host or cells: HEK293. On the procedure: Identification of ASIC Antagonists Using Calcium-Imaging
ASIC1a expressing HEK293 cells are grown in culture medium (DMEM with 10% FBS), in polystyrene culture flasks (175 mm 2) at 37° C. in a humidified atmosphere of 5% CO2. Confluency of cells should be 80-90% on day of plating. Cells are rinsed with 10 ml of PBS and cells are re-suspended by addition of culture medium and trituration with a 25 ml pipette.
The cells are seeded at a density of approximately 1×10^6 cells/ml (100 μl/well) in black-walled, clear bottom, 96-well plates pre-treated with 10 mg/l poly-D-lysin (75 μl/well for ≧30 min). Plated cells are allowed to proliferate for 24 h before loading with dye.
Loading with Fluorescent Calcium Dye Fluo-4/AM
Fluo-4/AM (1 mg, Molecular Probes) is dissolved in 912 μl DMSO. The Fluo-4/AM stock solution (1 mM) is diluted with culture medium to a final concentration of 2 μM (loading solution).
The culture medium is aspirated from the wells, and 50 μl of the Fluo-4/AM loading solution is added to each well. The cells are incubated at 37° C. for 30 min.
After the loading period, the loading solution is aspirated and the cells are washed twice with 100 μl modified Assay Buffer (145 mM NaCl, 5 mM KCl, 5 mM CaCl2, 1 mM MgCl2, 10 mM HEPES, pH 7.4) to remove extracellular dye. Following the second wash, 100 μl modified Assay Buffer is added to each well and the fluorescence is measured in FLIPR™ or FlexStation™ (Molecular Devices, USA), or any other suitable equipment known to the skilled in the art.
Temperature: Room temperature (20-22° C.)
First addition: 50 μl test solution at a rate of 30 μl/sec and a starting height of […]
Second addition: 50 μl MES solution (20 mM, 5 mM final concentration) at a rate of 35 μl/sec and a starting height of 150 μl.
Reading intervals: pre-incubation—10 sec×7 and 3 sec×3 antagonist phase—3 sec×17 and 10 sec×12
Addition plates (compound test plate and MES plate) are placed on the right and left positions in the FLIPR tray, respectively. Cell plates are placed in the middle position and the ASIC1a program is effectuated. FLIPR will then take the appropriate measurements in accordance with the interval settings above. Fluorescence obtained after stimulation is corrected for the mean basal fluorescence (in modified Assay Buffer).
Hit Confirmation and Characterization of Active Substances
The MES-induced peak calcium response, in the presence of test substance, is expressed relatively to the MES response alone. Test substances that block the MES-induced calcium response are re-tested in triplicates. […]

Test [2] addresses T1, ASIC1a. Description: Two-electrode voltage clamp of acid-induced currents in Xenopus laevis oocytes. Set-up: expressed in transfected cells; host or cells: Xenopus laevis oocytes, nuclear microinjection of an expression vector such as pCDNA3. Type of test: cell-based. Conditions: 50 μM, Xenopus oocytes; read-out: % inh. at 50 μM (Xo). How it is done: Screening and Bioanalysis of ASIC Antagonists in Xenopus laevis oocytes
This example describes the in vitro assessment of the activity of the compounds of the present invention.
Two-electrode voltage clamp electrophysiological assays in Xenopus laevis oocytes expressing gated ion channels are performed as follows:
Oocytes are surgically removed from adult Xenopus laevis and treated for 2 h at room temperature with 1 mg/ml type I collagenase (Sigma) in Barth's solution under mild agitation. Selected oocytes at stage IV-V are defolliculated manually before nuclear microinjection of 2.5-5 ng of a suitable expression vector, such as pCDNA3, comprising the nucleotide sequence encoding a gated ion channel subunit protein. In such an experiment, the oocytes express homomultimeric proton-gated ion channels on their surface. In an alternate experiment, one, two, three or more vectors comprising the coding sequences for distinct gated ion channel subunits are co-injected in the oocyte nuclei. In the latter case, oocytes express heteromultimeric proton-gated ion channels. For example, ASIC2a and/or ASIC3 subunits in pcDNA3 vector are co-injected at a 1:1 cDNA ratio. After 2-4 days of expression at 19° C. in Barth's solution containing […] gentamicin and 1.8 mM CaCl2, gated ion channels are activated by applying an acidic solution (pH<7) and currents are recorded in a two electrode voltage-clamp configuration, using an OC-725B amplifier (Warner Instruments). Currents are acquired and digitized at 500 Hz on an Apple Imac G3 computer with an A/D NB-MIO-16XL interface (National Instruments) and recorded traces are post-filtered at 100 Hz in Axograph (Axon Instruments) (Neher, E. and Sakmann, B. (1976) Nature 260:799-802). Once impaled with the microelectrodes, oocytes are continuously superfused at 10-12 ml/min with a modified Ringer's solution containing 97 mM NaCl, 2 mM KCl, 1.8 mM CaCl2, and 10 mM HEPES brought to pH 7.4 with NaOH (Control Ringer). Test Ringer solution is prepared by replacing HEPES with MES and adjusting the pH to the desired acidic value. Compounds of the present invention are prepared in both the Control and Test Ringer solutions and applied to oocytes at room temperature through a computer-controlled switching valve system. Osmolarity of all solutions is adjusted to 235 mOsm with choline chloride. Similarly, recordings can also be acquired in an automated multichannel oocytes system as the OpusExpress™ (Molecular Devices, Sunnyvale, USA).
FIGS. 1A and 2A illustrate the inhibitory effects of Compounds 12 and 44 on acid-induced activation of recombinant homomeric hASIC1a channels. FIGS. 1A and 2A show the dose-dependent inhibition of the acid-induced hASIC1a currents recorded from Xenopus laevis oocytes using the two-electrode voltage clamp method (as described in this example) in the absence or presence of increasing concentration of the compounds.

The mark [3] stands for this setting: MES-induced calcium response, ASIC1a expressing HEK293 cells, read-out: IC50 (FLIPR).

With `CCN1CCc2c(-c3ccccc3OC)cc(C#N)c(N)c2C1` [Compound 45], the IC50 at ASIC1a [1] (setting [3]) was 10 to 20 µM. For the same compound, the inhibition at 50 µM at ASIC1a [2] was over 50%.

Take `CCN1CCc2c(-c3cc(C)cc(C)c3)cc(C#N)c(N)c2C1` [Compound 48]: the half-maximal inhibitory concentration (IC50) at ASIC1a [1] is under 10 µM. Also, the inhibition at 50 µM on ASIC1a [2] was over 50%.

As to `CCN1CCc2c(-c3ccccc3)cc(C#N)c(N(C)C)c2C1` [Compound 50], the IC50 on ASIC1a [1] (setting [3]) was in the range of 10 to 20 µM. Also, the inhibition at 50 µM at ASIC1a [2] is over 50%.

(Values after patent US20080004282A1, “Compositions and methods for modulating gated ion channels” (PainCeptor Pharma Corporation, priority 2006, published 2008).)
